How the values were obtained:
[1] = tested on: human malignant pleural mesothelioma cell lines (NCI-H28, NCI-H2052, NCI-H2452 and MSTO-211H cells); assay: MTT cell viability assay, malignant mesothelioma cell lines; format: cell-based; conditions: 24 hr
Source text: Cancer cells (NCI-H28, NCI-H2052, NCI-H2452 and MSTO-211H) treated or not treated with a given concentration of each test compound for 24 hr were subjected to MTT assay. […] As a control, MTT intensity of the cells not treated with any of naftopidil and the aryloxy derivative of the present invention was used.
NCI-H28, NCI-H2052, NCI-H2452 and MSTO-211H cells were used as human malignant pleural mesothelioma cell lines. These cells were purchased from American Type Culture Collection (Manassas, Va., USA). The cells were cultured in RPMI (Roswell Park Memorial Institute)-1640 medium added with 0.003% (W/V) L-glutamine.
(§1) In all cultures, the medium was supplied with 10% (v/v) heat inactivated bovine serum, penicillin (final concentration 100 U/ml) and streptomycin (final concentration 0.1 mg/ml), and culture was performed at 37° C. under humidification atmosphere of 5% CO2 and 95% air.
(§2) The cell viability was measured by a method using MTT (3-(4,5-dimethyl-2-thiazolyl)-2,5-diphenyl-2H-tetrazolium bromide) in the same manner as in a published report (Cell Physiol Biochem 2012; 30: 61-74).

[2] = tested on: human lung cancer cell lines (A549, SBC-3, and Lu-65 cells); assay: MTT cell viability assay, lung cancer cell lines; format: cell-based; conditions: A549, SBC-3, Lu-65 cells, 1-100 μM, 24 hr
Source text: (§3) The following cell lines treated or not treated with a given concentration of HUHS1015 for 24 hr were subjected to MTT assay. (A) lung cancer cell line (B) liver cancer cell line (C) gastric cancer cell line (D) bladder cancer cell line (E) prostate cancer cell line (F) kidney cancer cell line. […] As a control, MTT intensity of the cells not treated with HUHS1015 was used.
A549, SBC-3 and Lu-65 cells were used as human lung cancer cell lines. These cells were purchased from Health Science Research Resources Bank (Osaka, Japan). A549 cells and SBC-3 cells were cultured in MEM (minimum essential medium) added with 0.1 mM non-essential amino acid, and Lu-65 cells were cultured in RPMI-1640 medium.
as §1, §2

[3] = tested on: human liver cancer cell lines (HepG2 and HuH-7 cells); assay: MTT cell viability assay, liver cancer cell lines; format: cell-based; conditions: HepG2, HuH-7 cells, 1-100 μM, 24 hr
Source text: as §3
HepG2 cells and HuH-7 cells were used as human […] cancer cell lines. These cells were obtained from RIKEN cell bank (Ibaraki, Japan) and cultured in DMEM (Dulbecco's Modified Eagles Medium).
as §1, §2

[4] = tested on: human gastric cancer cell lines (MKN-28 and MKN-45 cells); assay: MTT cell viability assay, gastric cancer cell lines; format: cell-based; conditions: MKN-28, MKN-45 cells, 1-100 μM, 24 hr
Source text: as §3
MKN-28 cells and MKN-45 cells were used as human gastric cancer cell lines. These cells were obtained from Dr. Tatematsu (Nagoya University, Japan) and cultured in RPMI-1640 medium.
as §1, §2

[5] = tested on: human bladder cancer cell lines (253J, 5637, KK-47, TCCSUP, T24, and UM-UC-3 cells); assay: MTT cell viability assay, bladder cancer cell lines; format: cell-based; conditions: T24, UM-UC-3 cells, 1-100 μM, 24 hr
Source text: as §3
253J cells, 5637 cells, KK-47 cells, TCCSUP cells, T24 cells and UM-UC-3 cells were used as human bladder cancer cell lines.
KK-47 cells were provided by Dr. Naito (Department of Urology, Kyushu University, Fukuoka, Japan). 253J cells, 5637 cells, TCCSUP cells, T24 cells and UM-UC-3 cells were purchased from American Type Culture Collection (Manassas, Va., USA). All cells were cultured in RPMI-1640 medium.
as §1, §2

[6] = tested on: human prostate cancer cell lines (DU145, LNCap, and PC-3 cells); assay: MTT cell viability assay, prostate cancer cell lines; format: cell-based; conditions: 1-100 μM, 24 hr
Source text: as §3
DU145 cells, LNCap cells and PC-3 cells were used as human prostate cancer cell lines. These cells were purchased from American Type Culture Collection. The DU145 cells were cultured in DMEM. The LNCaP and PC-3 cells were cultured in RPMI-1640 medium.
as §1, §2

[7] = tested on: human kidney cancer cell lines (ACHN, RCC4-VHL, and 786-O cells); assay: MTT cell viability assay, kidney cancer cell lines; format: cell-based; conditions: 1-100 μM, 24 hr
Source text: as §3
ACHN cells, RCC4-VHL cells and 786-O cells were used as human kidney cancer cell lines. These cells were purchased from European Collection of Animal Cell Cultures (ECACC; Salisbury, UK), and cultured in DMEM.
as §1, §2

[8] = tested on: MKN45 gastric cancer cells; assay: Growth of subcutaneously inoculated MKN45 gastric cancer cells in nude mouse; format: in vivo; conditions: nude BALB/c-nu/nu mouse, MKN45 subcutaneous, 0.23 mg/mouse 25 μM intraperitoneal twice per week, day 33
Procedure: MKN45 gastric cancer cells were subcutaneously inoculated into the flank of mouse, and 1 week later (day 0), 25 μM of HUHS1015 and 25 μM of naftopidil were intraperitoneally administered (twice/1 week). As a control, a mouse administered with saline was used. The time-course changes (A) of the tumor volume (mean±SEM, n=7) and the results (B) of tumor weight (mean±SEM, n=7) after the lapse of 33 days are shown. P value, Dunnett's test. NS, not significant
Nude BALB/c-nu/nu mouse (male, 6 week-old) was purchased from Japan SLC, Inc. (Shizuoka, Japan). MKN45 cells (1×10^7 cells) were suspended in a culture medium (200 μl) containing Matrigel (BD Biosciences, San Jose, Calif., USA) and subcutaneously inoculated to the flank of the mouse under general anesthesia with pentobarbital. HUHS1015 (0.23 mg/mouse 25 μM) or naftopidil (0.25 mg/mouse 25 μM) was diluted with saline. At 1 week (Day 0) after inoculation, intraperitoneal administration of saline, HUHS1015 or naftopidil twice per week was started. The longitudinal length (L) and transverse length (S) of the inoculated tumor were measured with calipers, and the tumor volume (V) was calculated from the following formula: V=L×S^2×1/2 The mouse was sacrificed on day 33, the tumor was isolated and the weight thereof was measured.

[9] = malignant mesothelioma cell lines, 1-100 μM

SMILES: COc1ccccc1N1CCN(CC(O)COc2cccc3ccccc23)CC1 (racemic) [naftopidil, (±)-1-[4-(2-methoxyphenyl)piperazinyl]-3-(1-naphthyloxy)propan-2-ol, reference compound]
- cell viability (MTT) ([1]; all examined malignant mesothelioma cell lines, 1-100 μM): reduced the cell viability in a concentration dependent manner
- cell viability (MTT) ([1]; malignant mesothelioma cell lines, concentration of 100 µM, % control): ~0%

SMILES: COc1cccc(N2CCN(CC(O)COc3cccc4ccccc34)CC2)c1 (stereo not shown) [HUHS1002, 1-(4-(3-methoxyphenyl)piperazinyl)-3-(1-naphthyloxyl)propan-2-ol, reference compound]
- activity in reducing cell viability (MTT) [1, 9]: high activity

SMILES: OC(COc1cccc2ccccc12)CN1CCN(c2ccccc2)CC1 (stereo not shown) [HUHS1004, 3-(1-naphthyloxy)-1-(4-phenylpiperazinyl)propan-2-ol]
- activity in reducing cell viability (MTT) [1, 9]: high activity

SMILES: OC(COc1cccc2ccccc12)CN1CCN(c2ccccc2Cl)CC1 (stereo not shown) [HUHS1014, 1-(4-(2-chlorophenyl)piperazinyl)-3-(1-naphthyloxy)-propan-2-ol]
- activity in reducing cell viability (MTT) [1, 9]: high activity

SMILES: COc1ccccc1NCCNCC(O)COc1cccc2ccccc12 (stereo not shown) [HUHS1015, 1-((2-((2-methoxyphenyl)amino)ethyl)amino)-3-(1-naphthyloxy)propan-2-ol]
- activity in reducing cell viability (MTT) [1, 9]: high activity
- cell viability (MTT) [2]: reduced the cell viability in a concentration dependent manner
- cell viability (MTT) [3]: reduced the cell viability in a concentration dependent manner
- cell viability (MTT) [4]: reduced the cell viability in a concentration dependent manner
- cell viability (MTT) [5]: reduced the cell viability in a concentration dependent manner
- cell viability (MTT) [6]: reduced the cell viability in a concentration dependent manner
- cell viability (MTT) [7]: reduced the cell viability in a concentration dependent manner
- antitumor effect on gastric cancer (tumor volume, tumor weight) [8]: superior to naftopidil

SMILES: COc1ccccc1C1CCN(CC(O)COc2cccc3ccccc23)CC1 (stereo not shown) [HUHS1017, 1-(4-(2-methoxyphenyl)piperidin-1-yl)-3-(1-naphthyloxyl)propan-2-ol]
- activity in reducing cell viability (MTT) [1, 9]: high activity

SMILES: CCCCCCCN1CCN(CC(O)COc2cccc3ccccc23)CC1 (stereo not shown) [HUHS1018, 1-(4-heptylpiperazinyl)-3-(1-naphthyloxyl)propan-2-ol]
- activity in reducing cell viability (MTT) [1, 9]: high activity

SMILES: CCCCCCCCN1CCN(CC(O)COc2cccc3ccccc23)CC1 (stereo not shown) [HUHS1019, 3-(1-naphthyloxy)-1-(4-octylpiperazinyl)propan-2-ol]
- activity in reducing cell viability (MTT) [1, 9]: high activity

— patent US9272980B2, “Anticancer agent” (KTN BioTec, Inc., priority 2014, dated 2016)
